Experimental findings from paper PMC12371494, “Discovery of YTHDF2 Ligands by Fragment-Based Design” (ACS Bio & Med Chem Au, 2025) are described below.

Values joined by “and” are separate entries in the source; they are usually repeats but may differ in a detail not shown here. Identical values can stand only once.

One experiment concerns the target T1, GST-YTHDF2 (Homo sapiens, UniProt Q9Y5A9).
T1 construct: made in house
T1 sequence (Q9Y5A9 1-579): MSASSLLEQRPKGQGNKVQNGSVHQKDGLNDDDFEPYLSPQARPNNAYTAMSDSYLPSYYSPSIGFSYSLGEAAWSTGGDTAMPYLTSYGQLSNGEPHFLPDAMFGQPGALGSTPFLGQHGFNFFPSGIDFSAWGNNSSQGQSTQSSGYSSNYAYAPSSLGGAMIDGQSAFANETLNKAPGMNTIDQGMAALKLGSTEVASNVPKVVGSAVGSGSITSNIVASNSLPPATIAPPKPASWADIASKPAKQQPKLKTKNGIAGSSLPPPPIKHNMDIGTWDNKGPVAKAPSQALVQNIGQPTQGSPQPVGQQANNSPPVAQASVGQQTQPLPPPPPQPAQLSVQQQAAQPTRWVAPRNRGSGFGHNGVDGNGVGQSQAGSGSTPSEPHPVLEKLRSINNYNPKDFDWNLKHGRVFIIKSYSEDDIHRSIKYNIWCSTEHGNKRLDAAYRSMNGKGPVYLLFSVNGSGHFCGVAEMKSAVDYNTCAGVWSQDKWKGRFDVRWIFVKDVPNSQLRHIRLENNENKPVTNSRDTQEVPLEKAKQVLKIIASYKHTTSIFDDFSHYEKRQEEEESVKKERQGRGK
Briefly: HTRF-based binding assay, competition with m6A-oligoRNA, DF2. The conditions noted are these: HTRF, 125 μM compound.
In the case of `CCOC(=O)c1ccc(Cc2cc3c(=O)[nH]c(=S)[nH]c3s2)cc1` [Compound S86], the “% at 125 μM (printed in IC50 column, IC50 could not be determined)” value worked out at 63%.

The same experiment, now with this note: LE = -RT ln IC50/HAC from HTRF IC50.
On to `COc1ccc(-c2cc3c(=O)[nH]c(=S)[nH]c3s2)cc1` [Compound 28], for which the “LE (ligand efficiency, DF2)” value is recorded as 0.34 kcal/(mol HAC).

As for `CCOC(=O)c1ccc(-c2cc3c(=O)[nH]c(=S)[nH]c3s2)cc1` [Compound 29], the “LE (ligand efficiency, DF2)” value was 0.29 kcal/(mol HAC).

Still in this experiment, the particulars now being: dose-response, competitor m6A-oligoRNA; read-out: DF2 IC50 (HTRF assay).
As for `COc1ccc(-c2cc3c(=O)[nH]c(=S)[nH]c3s2)cc1` [Compound 28], the half-maximal inhibitory concentration (IC50) (commonly the concentration that gives 50% inhibition) stood at 22 µM.

Turning to `CCOC(=O)c1ccc(-c2cc3c(=O)[nH]c(=S)[nH]c3s2)cc1` [Compound 29], the IC50 was 21 µM.

On to `CCN1CCc2c(sc3[nH]c(=S)n(N)c(=O)c23)C1` [Compound S69], for which the IC50 was 23 µM.

As to `O=c1[nH]c(=S)[nH]c2scc(-c3ccccc3)c12` [Compound S74], the half-maximal inhibitory concentration (IC50) came out at 94 µM.

For `O=C(O)c1ccc(Cc2cc3c(=O)[nH]c(=S)[nH]c3s2)cc1` [Compound S87], the IC50 is 29 µM.

As for `Cc1csc2[nH]c(=S)[nH]c(=O)c12` [Compound S88], the IC50 stood at 28 µM.

In a further experiment the target is T2, YTHDF2 (Homo sapiens, UniProt Q9Y5A9).
T2 sequence (Q9Y5A9 1-579): T1 sequence (Q9Y5A9 1-579)
In words: DNA-fluorescence polarization (FP) competition assay, DF2. Type of experiment: binding.
Details: not given
On the procedure: An FP competition assay was used to further validate the binding of the compounds to DF2. The main difference with respect to a previously published FP assay is the use of an oligo-DNA as competitor ligand (see Materials and Methods section). […] These differences might originate from the varying conditions in the two assays, such as the competitor mRNA (5′-biotin-[…](m6A)-CUAAGCU-3′) in HTRF and DNA (5′-FAM-[…](m6A)-CTAAGCT-3′) in FP, the salt concentration (150 mM NaCl and 100 mM KF in HTRF, and 150 mM NaCl in FP), and the pH (7.5 in HTRF and 7.4 in FP). The FP-based assay was also employed to assess the selectivity against DC1 and DC2 (see Selectivity section).
(§1) For fluorescence polarization (FP) experiments, a 5′-fluorescein-labeled m^6A-DNA probe (5′-FAM-[…](m6A)-CTAAGCT-3′) was synthesized by Microsynth AG.
(§2) The final concentration of the fluorescein-labeled DNA was kept constant at 3 nM. For YTHDC2 measurements, the protein concentration was set to 25 nM, while for YTHDF2 measurements, it was set to 10 nM, and for YTHDC1, it was set at 15 nM. The compound concentration was serially diluted to obtain the dose–response curve. The competition experiments were conducted in a final volume of 20 μL in a buffer containing 20 mM Tris–HCl (pH 7.4), 150 mM NaCl, and 0.01% bovine serum albumin (BSA), using a 384-well black flat-bottomed microplate (Corning 3575).
(§3) After incubating the mixture for 1 h, the anisotropy values were measured using a Tecan SPARK plate reader with 485/20 nm excitation and 535/25 nm emission polarization filters, suitable for fluorescein, at 25 °C. To obtain the equilibrium dissociation constant (K d), the IC50 values were first derived by fitting a dose–response curve to the data using nonlinear regression analysis in GraphPad Prism. These IC50 values were then converted to K d by using the Cheng–Prusoff equation: Kd=IC50/1+[L]/Kdprobe
(§4) IC50 is the observed value from FP assay, [L] is the probe concentration used, and K d ^probe is the binding affinity of probe for the target.
On the technique in general: Polarisation of emitted light reports the rotation of a fluorescent probe.
Regarding `COc1ccc(-c2cc3c(=O)[nH]c(=S)[nH]c3s2)cc1` [Compound 28], the Kd (as a rule, a measure of binding affinity in units of concentration) was 1.9 µM.

As to `CCOC(=O)c1ccc(-c2cc3c(=O)[nH]c(=S)[nH]c3s2)cc1` [Compound 29], the affinity, expressed as Kd, was 3.1 µM.

Turning to `O=C(O)c1ccc(-c2cc3c(=O)[nH]c(=S)[nH]c3s2)cc1` [Compound 30], the Kd amounted to 1.9 µM.

The experiment is the same for the next values; noted with them: Cheng-Prusoff from FP IC50, probe Kd 5 nM; two biological replicates.
`O=C(O)c1ccc(Cc2cc3c(=O)[nH]c(=S)[nH]c3s2)cc1` [Compound S87]: the Kd came to 18 µM.

`Cc1csc2[nH]c(=S)[nH]c(=O)c12` [Compound S88] registered a Kd of 8.1 µM.

In the next experiment the target is T3, YTHDC2 (Homo sapiens, UniProt Q9H6S0).
T3 construct: YTH domain of YTHDC2 (residues 1285–1424, cloned into the pGEX-6P-1 vector); made in house; host or cells: Rosetta (DE3) cells (E. coli)
T3 sequence (Q9H6S0 1285-1424): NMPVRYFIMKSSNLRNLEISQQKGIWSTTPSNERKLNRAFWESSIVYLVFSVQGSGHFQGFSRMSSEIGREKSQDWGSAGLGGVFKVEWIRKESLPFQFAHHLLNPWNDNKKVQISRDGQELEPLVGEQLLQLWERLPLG
In words: DNA-fluorescence polarization (FP) competition assay, DC2. The class given is binding. The following applies: Cheng-Prusoff from FP IC50, probe Kd 7 nM; two biological replicates. Here is the method:
(§5) The binding affinity for DC1 could not be evaluated by HTRF because of interference of the compounds with the assay, which has a smaller assay window when performed with DC1 compared to the DF proteins. Thus, the FP assay was used to evaluate binding to DC1 and DC2.
The N-terminally GST-tagged YTH domain of YTHDC2 (residues 1285–1424, cloned into the pGEX-6P-1 vector) was overexpressed in Rosetta (DE3) cells grown overnight at 20 °C following induction with 0.4 mM isopropyl-β-D-thiogalactopyranoside (IPTG) at an OD600 of 0.8. The cells were harvested and resuspended in a lysis buffer containing 100 mM Tris–HCl (pH 8.0) and 500 mM NaCl. After cell lysis, the lysate was clarified by centrifugation at 48,000g for 1 h, and the soluble proteins were loaded onto a column packed with Glutathione Sepharose 4B (GE Healthcare), then eluted with 20 mM reduced glutathione in lysis buffer. Finally, a size-exclusion chromatography step (HiLoad 16/600 Superdex 200 pg column, GE Healthcare) was performed to further purify the protein in 20 mM Tris–HCl (pH 7.4) and 150 mM NaCl.
as §1, §2, §3, §4
Turning to `COc1ccc(-c2cc3c(=O)[nH]c(=S)[nH]c3s2)cc1` [Compound 28], the Kd was determined as 9.1 µM.

As to `CCOC(=O)c1ccc(-c2cc3c(=O)[nH]c(=S)[nH]c3s2)cc1` [Compound 29], the affinity, expressed as Kd, was 8.4 µM.

Take `O=C(O)c1ccc(-c2cc3c(=O)[nH]c(=S)[nH]c3s2)cc1` [Compound 30]: the Kd is 5 µM and 4.9 µM.

Compound `O=c1[nH]c(=S)[nH]c2scc(-c3ccccc3)c12` [Compound S74] came in with an equilibrium dissociation constant (Kd) of more than 1000 µM.

Compound `CCOC(=O)c1ccc(Cc2cc3c(=O)[nH]c(=S)[nH]c3s2)cc1` [Compound S86] showed a dissociation constant (Kd) of 210 µM.

The compound `O=C(O)c1ccc(Cc2cc3c(=O)[nH]c(=S)[nH]c3s2)cc1` [Compound S87] returned a Kd of 100 µM.

Compound `Cc1csc2[nH]c(=S)[nH]c(=O)c12` [Compound S88] had a Kd of 120 µM.

The same experiment, now with this note: FP Kd values.
With `CCOC(=O)c1ccc(-c2cc3c(=O)[nH]c(=S)[nH]c3s2)cc1` [Compound 29], the “Selectivity DF2 over DC2 (Kd ratio DC2/DF2)” value is 2–4 fold.

The target in another experiment is YTHDC1 (Homo sapiens, UniProt Q96MU7). In words: DNA-fluorescence polarization (FP) competition assay, DC1. The class given is binding.
Details: not given
On the procedure:
as §5, §1, §2, §3, §4
For `COc1ccc(-c2cc3c(=O)[nH]c(=S)[nH]c3s2)cc1` [Compound 28], the equilibrium dissociation constant (Kd) was found to be 9.4 µM.

In turn, `CCOC(=O)c1ccc(-c2cc3c(=O)[nH]c(=S)[nH]c3s2)cc1` [Compound 29] displayed a Kd of 5 µM.

For the compound `O=C(O)c1ccc(-c2cc3c(=O)[nH]c(=S)[nH]c3s2)cc1` [Compound 30], binding was put at a Kd of 7.5 µM.

Staying with this experiment, now noted: FP Kd values.
As to `CCOC(=O)c1ccc(-c2cc3c(=O)[nH]c(=S)[nH]c3s2)cc1` [Compound 29], the “Selectivity DF2 over DC1 (Kd ratio DC1/DF2)” value was 2–4 fold.
